Columns and labels:
Conditions in all cases: human; call rule not given here
[1] = test system: Hepatotoxicity; assay: FDA HLAED, serum glutamic oxaloacetic transaminase (SGOT) increase
[2] = test system: Hepatotoxicity; assay: FDA HLAED, serum glutamic pyruvic transaminase (SGPT) increase
[3] = test system: Hepatotoxicity; assay: FDA HLAED, lactate dehydrogenase (LDH) increase
[4] = test system: Hepatotoxicity; assay: FDA HLAED, liver enzyme composite activity
[5] = test system: Hepatotoxicity; assay: FDA HLAED, alkaline phosphatase increase
[6] = test system: Hepatotoxicity; assay: FDA HLAED, gamma-glutamyl transferase (GGT) increase
Throughout, for GGT Increase - Index Value: reference of the scale not given here.
Throughout, for LDH Increase - Index Value: reference of the scale not given here.

SMILES | SGOT Increase - Activity Score [1] | SGOT Increase - Index Value [1] | SGOT Increase - Number of Reports [1] | SGPT Increase - Activity Score [2] | SGPT Increase - Index Value [2] | SGPT Increase - Number of Reports [2] | LDH Increase - Activity Score [3] | LDH Increase - Index Value [3] | LDH Increase - Number of Reports [3] | Composite Activity - Active [4] | Composite Activity - Marginal [4] | Composite Activity - Score [4] | Alkaline Phosphatase Increase - Activity Score [5] | Alkaline Phosphatase Increase - Index Value [5] | Alkaline Phosphatase Increase - Number of Reports [5] | GGT Increase - Activity Score [6] | GGT Increase - Index Value [6] | GGT Increase - Number of Reports [6] | also measured
COc1cc2c(cc1OC)[C@@H](Cc1cc(OC)c(OC)c(OC)c1)[N+](C)(CCCOC(=O)CC/C=C/CCC(=O)OCCC[N+]1(C)CCc3cc(OC)c(OC)cc3[C@H]1Cc1cc(OC)c(OC)c(OC)c1)CC2.[Cl-].[Cl-] (stereo partly specified) [MIVACURIUM CHLORIDE] | Inactive | 0 | < 4 | Inactive | 0 | < 4 | Inactive | 0 | < 4 | 0 | 0 | Inactive | Inactive | 0 | < 4 | Inactive | 0 | < 4 | 
CCOC(=O)[C@H](CCc1ccccc1)N[C@@H](C)C(=O)N1Cc2cc(OC)c(OC)cc2C[C@H]1C(=O)O [MOEXIPRIL] | Inactive | 1.3 | < 4 | Inactive | 1.3 | < 4 | Inactive | 0 | < 4 | 0 | 0 | Inactive | Inactive | 0 | < 4 | Inactive | 0 | < 4 | 
C[C@@H]1C[C@H]2[C@@H]3CCC4=CC(=O)C=C[C@]4(C)[C@@]3(Cl)[C@@H](O)C[C@]2(C)[C@@]1(O)C(=O)CCl [MOMETASONE] | Inactive | 0 | < 4 | Inactive | 0 | < 4 | Inactive | 0 | < 4 | 0 | 0 | Inactive | Inactive | 0 | < 4 | Inactive | 0 | < 4 | 
CCOC(=O)Nc1ccc2c(c1)N(C(=O)CCN1CCOCC1)c1ccccc1S2 [MORICIZINE] | Active | 13.7 | >= 4 | Inactive | 3.4 | < 4 | Inactive | 3.4 | < 4 | 1 | 0 | Inactive | Inactive | 3.4 | < 4 | Inactive | 0 | < 4 | 
C/C(=C\C(=O)OCCCCCCCCC(=O)O)C[C@@H]1OC[C@H](C[C@@H]2O[C@H]2[C@@H](C)[C@H](C)O)[C@@H](O)[C@H]1O [MUPIROCIN] | Inactive | 0 | < 4 | Inactive | 0 | < 4 | Inactive | 0 | < 4 | 0 | 0 | Inactive | Inactive | 0 | < 4 | Inactive | 0 | < 4 | 
COc1c(C)c2c(c(O)c1C/C=C(\C)CCC(=O)O)C(=O)OC2 [MYCOPHENOLIC ACID] | Inactive | 3.8 | < 4 | Active | 9.6 | >= 4 | Inactive | 1.9 | < 4 | 1 | 0 | Inactive | Inactive | 5.7 | < 4 | Inactive | 3.8 | < 4 | 
CCCCCCC(C)(C)c1cc(O)c2c(c1)OC(C)(C)C1CCC(=O)CC21 (stereo unspecified) [NABILONE] | Inactive | 0 | < 4 | Inactive | 0 | < 4 | Inactive | 0 | < 4 | 0 | 0 | Inactive | Inactive | 0 | < 4 | Inactive | 0 | < 4 | 
COc1ccc2cc(CCC(C)=O)ccc2c1 [NABUMETONE] | Inactive | 0.6 | >= 4 | Inactive | 0.6 | >= 4 | Inactive | 0.3 | >= 4 | 0 | 0 | Inactive | Inactive | 0.8 | >= 4 | Inactive | 0.5 | >= 4 | 
CC(C)(C)NCC(O)COc1cccc2c1CC(O)C(O)C2 (stereo unspecified) [NADOLOL] | Inactive | 0.7 | >= 4 | Inactive | 0.7 | >= 4 | Inactive | 0 | < 4 | 0 | 0 | Inactive | Inactive | 0.3 | < 4 | Inactive | 0 | < 4 | 
CN(C/C=C/c1ccccc1)Cc1cccc2ccccc12 [NAFTIFINE] | Inactive | 0 | < 4 | Inactive | 0 | < 4 | Inactive | 0 | < 4 |  |  |  | Inactive | 0 | < 4 | Inactive | 0 | < 4 | Composite Activity - Active ([4]; Liver): 0; Composite Activity - Marginal ([4]; Liver): 0; Composite Activity - Score ([4]; Liver): Inactive
Oc1ccc2c3c1O[C@H]1[C@@H](O)CC[C@@]4(O)[C@@H](C2)N(CC2CCC2)CC[C@]314 [NALBUPHINE] | Inactive | 0 | < 4 | Inactive | 0 | < 4 | Inactive | 0 | < 4 | 0 | 0 | Inactive | Inactive | 0 | < 4 | Inactive | 0 | < 4 | 
O=C1CC[C@@]2(O)[C@H]3Cc4ccc(O)c5c4[C@@]2(CCN3CC2CC2)[C@H]1O5 [NALTREXONE] | Inactive | 0 | < 4 | Inactive | 23.3 | < 4 | Inactive | 0 | < 4 | 0 | 0 | Inactive | Inactive | 0 | < 4 | Inactive | 0 | < 4 | 

Source: ChEMBL document CHEMBL1697781, “Assessment of the health effects of chemicals in humans: II. Construction of an adverse effects database for QSAR modeling” (Curr Drug Discov Technol, 2004)
